Measured values: patent publication US4087603A, “Antifungal antibiotics” (priority 1976, dated 1978)

Legend:
Solubility = type: physicochemical
fungi = conditions: cited from earlier work
[1] = system: systemic fungal infections; conditions: cited from earlier work
C. albicans A-26 = experiment: In vivo antifungal activity in X-irradiated mice infected intravenously with C. albicans A-26; conditions: Candida albicans, A26, light or radiation study, sc, C. albicans A-26 i.v. infection, sub-lethal X-irradiation 24 hours prior, read-out: average effective dose, ED50
Procedure: As previously mentioned, the compounds of this invention are effective systemic antifungal agents. When administered orally or parenterally, the antifungal compounds of this invention are effective in combatting systemic fungal infections for example, Candida albicans systemic infections. […] The tests in mice were carried out in the following manner. Two groups of mice, one a control group, were exposed to a sub-lethal dose of X-irradiation 24 hours prior to infection with C. albicans A-26. The mice were infected by intravenous administration of C. albicans cells.

Acute toxicity in mice = type: in vivo

Compound	solubility in methanol (Solubility)	activity in vitro (known antibiotic) (fungi)	activity in vivo (known antibiotic) [1]	ED50 (C. albicans A-26) [mg/kg]	acute toxicity (Acute toxicity in mice; mice, dose of about 1000 mg./kg.)	solubility in acetone (Solubility; acetone)	solubility in ethanol (Solubility; ethanol)	solubility in water (Solubility)	acute toxicity (Acute toxicity in mice; dose of 400 mg./kg.)
Nc1ncnc2c1ncn2[C@@H]1O[C@H](CC(N)CC[C@H](N)C(=O)O)[C@@H](O)[C@H]1O (stereo partly drawn) [A-9145, 5'-deoxy-5'-(1,4-diamino-4-carboxybutyl)adenosine]	partially soluble	active both in vitro and in vivo	active both in vitro and in vivo						
Nc1ncnc2c1ncn2[C@@H]1O[C@H](CC2CCC(N)C(=O)N2)[C@@H](O)[C@H]1O (stereo partly drawn) [compound I, 5'-deoxy-5'-(3-aminopiperidin-2-one-6-yl)adenosine]	sparingly soluble			38	no acute toxicity was observed	sparingly soluble	sparingly soluble	highly soluble	
NC(=O)NC(CCC(N)C[C@H]1O[C@@H](n2cnc3c(N)ncnc32)[C@H](O)[C@@H]1O)C(N)=O (stereo partly drawn) [compound II, 5'-deoxy-5'-(1-amino-4-ureido-4-carboxyamidobutyl)adenosine]				~21				highly soluble	no acute toxicity was observed
